# Measured values taken from a melting point compilation (Tetko et al.; mined from patent text by program, amines drawn as free bases though some values may be those of a salt).
row,melting point [°C],Structure (SMILES)
1,96 to 98,COc1cccc(P(=O)(c2ccc(C)cc2)c2ccc(C)cc2)c1
2,254 to 256,O=c1c2cc(C=NO)ccc2oc2ncccc12
3,118,CC(C)(C)OC(=O)Nc1ccc(C#Cc2cccc(C#Cc3ccc(NC(=O)OC(C)(C)C)cc3)c2C(=O)O)cc1
4,154 to 157,Cc1cnc2c(C#N)cnn2c1-c1ccc(Cl)cc1
5,241 to 244,CC1(C)CCC(C)(C)c2cc(-c3cc(-c4ccc(C(=O)O)cc4)ccc3OCc3ccccc3)ccc21
6,223 to 224,CC1(C)SC2C(NC(=O)Cc3ccccc3)C(=O)N2C1NC(=O)OCC(Cl)(Cl)Cl (stereo not drawn)
7,> 300,N#Cc1cc2c(-c3ccncc3)nccc2[nH]c1=O
8,215 to 217,O=C1CC2CCSc3sccc3C2=NN1 (stereo not drawn)
9,132 to 133,c1ccc(-c2nc(-c3ccc(OCCCn4ccnc4)cc3)no2)cc1
10,172 to 176,NS(=O)(=O)c1cccc(C2(O)CCCCC2)c1
11,209 to 210,Cc1ccccc1NS(=O)(=O)c1ccc(N2CCNC2=O)cc1
12,138 to 142,Cc1cccc2c1C(=O)C(CO)(CO)CS2
13,168 to 170,CC(C)(C)C(=O)Cn1ncc(-c2ccc(S(C)(=O)=O)cc2)c(-c2ccc(F)cc2)c1=O
14,120 to 130,COCn1c(-c2nc3c(OC)ccc(N4CCOCC4)c3s2)nc2ccc(N3CCC(O)CC3)nc21
15,101 to 102,Cc1cccc(C(Oc2ccc3oc(CCCO)cc3c2)c2cocn2)c1 (stereo not drawn)
16,118,N#CC(c1ccccc1)C1CCN(c2ccc([N+](=O)[O-])cc2)CC1 (stereo not drawn)
17,203 to 205,CCN1CCN(c2cc3c(cc2F)c(=O)c(C(=O)O)cn3CC)CC1C (stereo not drawn)
18,146 to 147,O=C(NC(CCl)c1ccc(-c2ccc(SC(F)F)cc2)cc1)c1c(F)cccc1F (stereo not drawn)
19,194,COc1ccc(S(=O)(=O)N2C(=O)C(=O)c3cc(Cl)ccc32)c(OC)c1
20,210 to 211,COc1ccc(-c2c(C(C)=O)c(C)nc3cc(OC)c(OC)cc23)cc1OC
21,65 to 66,COc1ccc(Nc2cccc(Cl)c2N)cc1
22,277,COc1ccc(-c2[nH]nc3c2C(=O)c2c(NC(=O)CN4CCNCC4)cccc2-3)cc1

row,melting point [°C],Structure (SMILES)
1,107 to 109,CSc1nn2c(N3CCN(C)CC3)ccnc2c1S(=O)(=O)c1ccccc1
2,125 to 130,O=C(c1cc(-c2ccc(Cl)c(Cl)c2)ccn1)N(O)Cc1ccccc1
3,119,O=C(NC(Cc1c[nH]c2ccccc12)C(=O)OCc1ccc(Cl)cc1)c1ccccc1 (stereo not drawn)
4,138 to 139,CC(C)(C)NN=C(O)C(=O)c1ccccc1
5,145 to 148,COc1cc2[nH]c(N(C)Cc3cccc(C4=NCCN4C)c3)nc(=O)c2c(C)c1OC
6,75 to 77,CC(C#CCOc1ccccc1)N(O)C(N)=O (stereo not drawn)
7,221 to 223,Cc1cncc(Oc2cccc(NC(=O)N3CCc4c(cnc5[nH]nc(Br)c45)C3)c2)n1
8,143 to 144,"NC(=O)N(O)C1C=C(c2cccc(Oc3ccc(Cl)cc3)c2)CC1 (single isomer, unassigned; (+))"
9,140 to 143,Cc1ccc(C2CC(C(F)(F)F)=NN2c2ccc(S(N)(=O)=O)cc2)cc1 (stereo not drawn)
10,320,O=C1N=c2ccc(Cl)cc2=N1
11,95 to 97,O=C(CCCNC(=O)C(=O)c1cn2c3c(cccc13)CCC2)NO
12,225,O=C(O)c1ccc(-c2ncn(-c3ccc(OC(F)(F)C(F)(F)F)cc3)n2)cc1
13,230 to 231,O=C1CCC(O)=C1Cc1ccc2ccccc2c1
14,158 to 160,O=[N+]([O-])c1ccc(Nc2cccc(O)c2)cc1
15,61 to 62,CC1(C)CC(=O)c2cc3c(cc2O1)OCO3
16,258 to 260,O=C(Nc1cc([N+](=O)[O-])cc([N+](=O)[O-])c1)c1cc(Br)ccc1O
17,55,CCCC(Cc1ccc(OCCN2CCCCCC2)cc1)(C(=O)OCC)S(=O)(=O)c1ccc(OC)cc1 (stereo not drawn)
18,> 300,C=Cc1ccc(-c2ccc3c4ccc5c6c(ccc(c7cccc2c73)c64)C(=O)N(c2c(C(C)C)cccc2C(C)C)C5=O)cc1
19,118 to 120,O=C(NCCCc1ccc(CC(CCCc2ccccc2)(C(=O)OCc2ccccc2)C(=O)OCc2ccccc2)cc1)c1ccc(-c2ccccn2)cc1
20,46 to 48,CCCC=Cc1c(C(C)C)nc(C(C)C)c(CO)c1-c1ccc(Cl)c(Cl)c1
21,123 to 128,COc1cccc(N(CCN2CCC(C(=O)c3ccc(F)cc3)CC2)C(=O)c2ccc(NC(N)=O)cc2)c1
22,139 to 141,CCCCCS(=O)(=O)NC(=O)CCc1cc(OCc2ccccc2)nn1Cc1ccc(Cl)cc1Cl

row,melting point [°C],Structure (SMILES)
1,80 to 85,CC(C)(C)c1ccc(S(=O)(=O)N2c3ccccc3C[C@H]2C(=O)NCc2ccc(CCC(=O)O)cc2)cc1
2,176 to 178,NC(C(=O)N(N)c1ccc2ccccc2c1)c1ccccc1 (stereo not drawn)
3,88 to 89,C#CCOc1cc(-n2nnn(CC)c2=O)c(Cl)cc1F
4,155,O=Cc1c(Br)nc(Sc2ccccc2)n1Cc1cc2c(cc1Cl)OCO2
5,108 to 110,OC(c1ccc(Cl)cc1Cl)C(Oc1ccc(Cl)cc1)n1ccnc1 (stereo not drawn)
6,219 to 221,Nc1ccc(-c2nc3c(F)cccc3s2)cc1
7,225 to 227,CCc1nc2c(N)nc3c(c2n1CC(C)(C)OCCS(C)(=O)=O)CCCC3
8,92,COc1cc2c(c(Cl)c1Cl)C(=O)C(CCCCCl)C2 (stereo not drawn)
9,218 to 220,CCOC(=O)C(=O)c1c[nH]c2ccc(CNS(C)(=O)=O)cc12
10,205 to 207,CCC(CC)c1ccc(Cl)c2nc3n(c12)CCN3C(=O)c1ccc(Cl)nc1
11,93 to 94,COc1cc(O)cc(-c2cc3ccc(O)cc3o2)c1CC=C(C)C
12,184 to 185,COc1cc(C(=O)NS(=O)(=O)c2ccccc2C)ccc1Cn1ncc2ccc(NC(=O)CC3CCCC3)cc21
13,132,O=[N+]([O-])c1cc(S(=O)(=O)NC(CO)CO)sc1Cl
14,153 to 155,CCOC(=O)C1=C(C)NC(=S)N(C(=O)OCC)C1c1ccccc1OCc1ccccc1 (stereo not drawn)
15,64 to 67,COCCNc1nc(C)c(C)c(N2CCc3ccccc3C2C)n1 (stereo not drawn)
16,186 to 193,O=C(c1ccc(Cl)cc1)c1c(N2C(=O)c3ccccc3C2=O)sc(Br)c1CN1CCN(c2ccccc2)CC1
17,149 to 151,CCOC(=O)C1=C(NC(=O)Nc2cc(C(=O)OC(C)C)c(F)cc2F)CCC1
18,187 to 189,Cc1c(C(=O)Nc2ccc(OCCN3CCOCC3)c(C#N)c2)cnn1-c1ccc(Cl)cc1
19,132 to 133,N#Cc1cccc(-c2nc(N3CCC(O)C3)cc3cccnc23)c1 (stereo not drawn)
20,201 to 203,COc1ccc(COc2cc3c(cc2-c2cc(C=CC(=O)O)ccc2OC)C(C)(C)CCC3(C)C)cc1
21,198 to 200,NNC(=O)C(Cl)(Cl)c1cccc(Cl)n1
22,171 to 173,Cc1c(C)c2c(c(C)c1N)C(c1ccc(C(C)C)cc1)CO2 (stereo not drawn)

row,Structure (SMILES),melting point [°C]
1,Cc1ccc(C23CN(C)CC2CC32SCCS2)cc1 (stereo not drawn),81 to 86
2,COC(=O)c1ccc2c(c1)C(SCCI)c1ccccc1CO2 (stereo not drawn),111 to 113
